Laboratory results: patent US20080039527A1, “Calixarenes as Inhibitors of Protein Kinase B” (Imperial College Innovations Ltd., priority 2003, published 2008)
Read-outs that look alike come from different tables or passages of the source.

Assays:
[1] = tested on: PKB Ser473 phosphorylation; experiment: PKB Ser473 activation synergy experiments (Western blot, NIH3T3 cells primed with NCS); type: cell-based; details: for phosphorylation of PKB (Western blot 1, FIG. 1): NIH3T3 cells, 1% NCS 20 minutes then compound 15 minutes
Excerpt: PKB is a protein downsteam effector of PI3K, and becomes phosphorylated on (residues required for its activity) in response to the activation of PI3K. Natal Calf Serum (NCS) is a stimulator of PI3K and thus subsequently results in PKB activation. Therefore the positive control used in experiments is 10% serum and a negative control used is provided with no serum at all.
Compound 48/80 is the condensation product of N-methyl-p-methoxyphenethylamine and formaldehyde and is a mixture of cationic amphiphiles of varying degrees of polymerisation.
In a typical method, NIH3T3 cells were grown in media (GibcoBRL) containing 10% NCS to near confluency in six well plates. The cells were starved using 0.5% serum for 2-3 days. The media was then removed and replaced with serum free media for 15 minutes. Subsequently, 1% NCS was added to reaction wells, and 0%, 1% and 10% NCS to control wells. After 20 minutes incubation, then compound was added, and the wells incubated for a further 15 minutes. Media was removed and sample buffer was added and the cells lysed, boiled, centrifuged.
Samples were subjected to gel electrophoresis by 10% SDS-PAGE and then Western blotted on to PVDF membrane (Biorad) according to standard protocols. Western blots were probed using primary antibodies against PKB purchased from New England Biolabs and secondary antibodies of goat anti-rabbit IgG coupled to horseradish peroxidase (Amersham). The membranes were then developed using a freshly prepared ECL solution according to standard protocols.

[2] = Dilution of compounds into water (observed solubility)
Excerpt: The monomer, dimer and trimer of compound 48/80 were received as synthesised from Macba Numbere at UCL.

[3] = diluted into water initially, afterwards into DMSO

Compound: CNCCc1ccc(OC)cc1 [monomer, N-methyl-p-methoxyphenethylamine]
- overall effect on PKB (conclusion from these studies) [1]: activating species
- PKB Ser473 phosphorylation (Western blot 3) ([1]; 5 μg/mL experiment, controls contain DMSO at 2.5%): slight activation above control levels
- solubility on dilution into water [2, 3]: solubility problems

Compound: CNCCc1ccc(OC)c(Cc2cc(CCNC)cc(Cc3cc(CCNC)ccc3OC)c2OC)c1.Cl.Cl.Cl [trimer]
- overall effect on PKB (conclusion from these studies) [1]: inhibiting species
- phosphorylation of PKB (Western blot 1, FIG. 1) ([1]; 3 μg/mL): just below that of 1% serum activation
- phosphorylation of PKB (Western blot 1, FIG. 1) ([1]; 6 μg/mL): almost completely inhibited
- solubility on dilution into water [2]: solubility problems

Compound: Benzeneethanamine-3,3′-methylenebis(4-methoxy-N-methyl) dihydrochloride [dimer]
- solubility on dilution into water [2, 3]: solubility problems
